The source of these data is US12686678B2, “Crystal form of Lanifibranor, preparation method therefor, and use thereof” (INVENTIVA, priority 2020, dated 2026).

What all share (type): physicochemical
A short description of data set [1]: Adhesiveness (material sticking to punch, ENERPAC manual tablet press). The following applies: about 30 mg, φ8 mm round tooling, 10 kN, held 30 s. As for the experimental part:
ENERPAC manual tablet press was used for testing. Approximately 30 mg of Form CSI was weighed and then added into the dies of φ8 mm round tooling, compressed at 10 kN and held for 30 s. The punch was weighed and the amount of material sticking to the punch was calculated. The compression was repeated twice and the maximum amount and average amount of material sticking to the punch during the compression were recorded. […] ENERPAC manual tablet press was used for testing. Approximately 30 mg of Form CSII was weighed and then added into the dies of φ8 mm round tooling, compressed at 10 kN and held for 30 s. The punch was weighed and amount of material sticking to the punch was calculated. The compression was repeated twice and the maximum amount and average amount of material sticking to the punch during the compression were recorded. […] ENERPAC manual tablet press was used for testing. Approximately 30 mg of Form CSIV was weighed and then added into the dies of φ8 mm round tooling, compressed at 10 KN and held for 30 s. The punch was weighed and amount of material sticking to the punch was calculated. The compression was repeated twice and the maximum amount and average amount of material sticking to the punch during the compression were recorded.

The nature of data set [2]: Hygroscopicity by dynamic vapor sorption (DVS). As to conditions: for Weight gain from 0 to 60% RH / Weight gain from 0 to 70% RH: DVS, 25° C.; for Crystalline state after DVS: XRPD before and after DVS test. As for the experimental part:
Dynamic Vapor Sorption (DVS) was measured via an SMS (Surface Measurement Systems Ltd.) intrinsic DVS instrument. The instrument control software is DVS-Intrinsic control software. Typical Parameters for DVS test are as follows: • Temperature: 25° C. • Gas and flow rate: N2, 200 mL/min • RH range: 0% RH to 95% RH Dynamic vapor sorption (DVS) analyzer was applied to evaluate the hygroscopicity of amorphous with a certain amount of sample. The weight gains at each relative humidity were recorded in a cycle of 0-95% RH-0. […] Dynamic vapor sorption (DVS) analyzer was applied to evaluate hygroscopicity of Form CSI with a certain amount of sample. The weight gains at each relative humidity were recorded in a cycle of 0-95% RH-0. Dynamic vapor sorption (DVS) analyzer was applied to evaluate hygroscopicity of Form CSII with a certain amount of sample. The weight gains at each relative humidity were recorded in a cycle of 50% RH-95% RH-0%-95% RH. Dynamic vapor sorption (DVS) analyzer was applied to evaluate hygroscopicity of Form CSIV and prior art amorphous with certain amounts of samples. The weight gains at each relative humidity were recorded in a cycle of 0-95% RH-0.

The nature of data set [3]: Flowability (compressibility index from bulk and tapped density). How it is done:
Compressibility index is usually utilized to evaluate the flowability of powder or granules during the drug product process. Compressibility index test method is as follows: a certain amount of powder was added into a measuring cylinder and bulk volume was recorded. Then the powder was tapped to make it in the tightest state and the tapped volume was recorded. The bulk density (ρ0) and tapped density (ρf) were calculated and compressibility index was calculated according to c=(ρf−ρ0)/ρf.

Data set [4] in a line: Particle size distribution (Mastersizer 3000, wet mode). As to conditions: after 30 seconds of ultrasonication, Isopar G. How it is done: The particle size distribution data in the present disclosure were acquired by an Mastersizer 3000 laser particle size analyzer of Malvern. The test was carried out in wet mode, using a Hydro MV dispersion device, and the dispersant was Isopar G. The parameters are shown in Table 3. A certain amount of Form CSI was added into a glass vial with about a certain volume of Isopar G (containing 0.2% lecithin). The mixture was mixed thoroughly and transferred into the Hydro MV dispersing device. The experiment was started when the obscuration was in appropriate range. The particle size distribution was tested after 30 seconds of ultrasonication.

The nature of data set [5]: Appearance of powder on sulphuric acid paper. From the text: A certain amount of Form CSI was weighed and put on sulphuric acid paper to observe the appearance The appearance of Form CSI is shown in FIG. 15. […] A certain amount of Form CSII was weighed and put in sulphuric acid paper, and the powder state was observed. […] A certain amount of Form CSIV was weighed and put in sulphuric acid paper, and the powder state was observed.

Data set [6] in a line: Physical and chemical stability on storage (XRPD for crystalline form, HPLC for purity). As for the experimental part:
A certain amount of Form CSI of the present disclosure was stored under different conditions of 25° C./60% RH, 40° C./75% RH, and 60° C./75% RH. Crystalline form and chemical purity were checked by XRPD and HPLC, respectively. Open packaged: Put the sample into a glass vial, cover the vial with aluminum toil, and punch 5-10 holes in the foil. Sealed packaged: Put the sample into a glass vial, cap the vial tightly, and seal the vial in an aluminum foil bag. A certain amount of Form CSII of the present disclosure was stored under different conditions of 25° C./60% RH, 40° C./75% RH, and 60° C./75% RH. Crystalline form and chemical purity were checked by XRPD and HPLC, respectively. A certain amount of Form CSIV of the present disclosure was stored under different conditions of 25° C./60% RH, 40° C./75% RH, and 60° C./75% RH. Crystalline form and chemical purity were checked by XRPD and HPLC, respectively.

A short description of data set [7]: Physical stability upon tableting under different pressures (XRPD). From the text:
A certain amount of Form CSII was compressed into tablet under different pressures with suitable tableting die. Crystalline form before and after tableting were checked by XRPD. […] A certain amount of Form CSIV was compressed into tablet under different pressures with suitable tableting die. Crystalline form before and after tableting were checked by XRPD.

A short description of data set [8]: Physical stability upon manual grinding (XRPD). The following applies: ground manually for 5 minutes in a mortar. As for the experimental part: Form CSII was grounded manually for 5 minutes in a mortar. […] Form CSIV was grounded manually for 5 minutes in a mortar.
The mark [9] stands for this setting: 25° C./60% RH, open packaged, 6 months.
[10] abbreviates: 25° C./60% RH, sealed packaged, 6 months.
Setting [11] is: 40° C./75% RH, open packaged, 6 months.
The mark [12] stands for this setting: 40° C./75% RH, sealed packaged, 6 months.
Setting [13] is: 60° C./75% RH, open packaged, 3 months.
[14] abbreviates: 60° C./75% RH, sealed packaged, 3 months.
Where [15] appears, read: 25° C./60% RH, open packaged, 3 months.
Where [16] appears, read: 25° C./60% RH, sealed packaged, 3 months.
Where [17] appears, read: 40° C./75% RH, open packaged, 3 months.
The mark [18] stands for this setting: 40° C./75% RH, sealed packaged, 3 months.
Setting [19] is: 60° C./75% RH, open packaged, one month.
Setting [20] is: 60° C./75% RH, sealed packaged, one month.

Structures are written as SMILES.

In turn, `O=C(O)CCCc1cc2cc(Cl)ccc2n1S(=O)(=O)c1ccc2ncsc2c1` [Form CSI, 5-Chloro-1-[(6-benzothiazolyl)sulfonyl]-1H-indole-2-butanoic acid] came in with an Average adhesion amount in data set [1] of 0.45 mg. Further, the “Weight gain from 0 to 60% RH” value in data set [2] (0 to 60% RH) was 0.17%. Besides, the “Weight gain from 0 to 70% RH” value in data set [2] (0 to 70% RH) is 0.17%. Further, the “Crystalline state after DVS” value in data set [2] was “remains unchanged”. Also, the Bulk density in data set [3] amounted to 0.405 g/mL. For the same compound, the Tapped density in data set [3] amounted to 0.526 g/mL. For the same compound, the Flowability result in data set [3] (class by compressibility index, ICH Q4B Annex 13) is “Passable (21-25)”. Besides, in data set [4], the D10 is given as 0.725 μm. Also, the D50 in data set [4] came out at 1.89 μm. In data set [4], this compound gave a D90 of 7.15 μm. Also, the MV in data set [4] is listed as 4.54 μm. Further, the Appearance of powder entry in data set [5] was “powdery with uniformly dispersed and has no adhesion phenomenon”. Moreover, the “Time for which the form is stable (crystalline state doesn't change)” value (from here on “Time … (crystalline state doesn't change)”) in data set [6] (25° C./60% RH) is recorded as “at least 6 months”; in data set [6] (40° C./75% RH) it was “at least 6 months”; in data set [6] (60° C./75% RH), “at least 3 months”. In addition, the Form after storage result in data set [6] (setting [9]), in data set [6] (setting [10]), in data set [6] (setting [11]), in data set [6] (setting [12]), in data set [6] (setting [13]) and in data set [6] (setting [14]) was “Form CSI” throughout. Besides, the Purity change in data set [6] (setting [9]) is on record as 0.02%; in data set [6] (setting [10]), 0.03%; in data set [6] (setting [11]) it was 0.05%; in data set [6] (setting [12]), 0.01%; in data set [6] (setting [13]), 0.08%; in data set [6] (setting [14]), 0.07%.

In the case of `O=C(O)CCCc1cc2cc(Cl)ccc2n1S(=O)(=O)c1ccc2ncsc2c1` [Form CSII, 5-Chloro-1-[(6-benzothiazolyl)sulfonyl]-1H-indole-2-butanoic acid], the Average adhesion amount in data set [1] is 0.20 mg. Moreover, the “Solid form after tableting” value in data set [7] (Pressure 5 kN), in data set [7] (Pressure 10 kN) and in data set [7] (Pressure 20 kN) was “Form CSII” throughout. The “Weight gain from 0 to 60% RH” value in data set [2] (0 to 60% RH) turned out to be 0.21%. In addition, in data set [2] (0 to 70% RH), the “Weight gain from 0 to 70% RH” value is listed as 0.27%. The “Crystalline state after DVS” value in data set [2] is “remains unchanged”. In addition, the “Crystalline state after grinding” value in data set [8] is “remains unchanged”. For the same compound, in data set [5], the Appearance of powder entry was “powdery with uniformly dispersed and has no adhesion phenomenon”. Besides, the “Time … (crystalline state doesn't change)” value in data set [6] (25° C./60% RH) is on record as “at least 3 months”; in data set [6] (40° C./75% RH), “at least 3 months”; in data set [6] (60° C./75% RH), “at least one month”. The Form after storage result in data set [6] (setting [15]), in data set [6] (setting [16]), in data set [6] (setting [17]), in data set [6] (setting [18]) and in data set [6] (setting [19]) was “Form CSII” each time. Moreover, the Purity change in data set [6] (setting [15]) worked out at 0.09%; in data set [6] (setting [16]) it was 0.06%; in data set [6] (setting [17]), 0.07%; in data set [6] (setting [18]), 0.01%; in data set [6] (setting [19]) it was 0.05%.

Turning to `O=C(O)CCCc1cc2cc(Cl)ccc2n1S(=O)(=O)c1ccc2ncsc2c1` [Form CSIV, 5-Chloro-1-[(6-benzothiazolyl)sulfonyl]-1H-indole-2-butanoic acid], the Average adhesion amount in data set [1] is on record as 0.05 mg. In addition, the “Solid form after tableting” value in data set [7] (Pressure 5 kN), in data set [7] (Pressure 10 kN) and in data set [7] (Pressure 20 kN) was “Form CSIV” throughout. The “Weight gain from 0 to 60% RH” value in data set [2] (0 to 60% RH) is on record as 0.23%. Also, the “Weight gain from 0 to 70% RH” value in data set [2] (0 to 70% RH) is 0.27%. In addition, the “Crystalline state after DVS” value in data set [2] is on record as “remains unchanged”. The “Crystalline state after grinding” value in data set [8] is listed as “remains unchanged”. Moreover, the Appearance of powder entry in data set [5] was “powdery with uniformly dispersed and has no adhesion phenomenon”. The results for the “Time … (crystalline state doesn't change)” value in data set [6] (25° C./60% RH), in data set [6] (40° C./75% RH) and in data set [6] (60° C./75% RH) were “at least 3 months”, “at least 3 months” and “at least one month”, respectively. Also, the Form after storage result in data set [6] (setting [15]), in data set [6] (setting [16]), in data set [6] (setting [17]), in data set [6] (setting [18]), in data set [6] (setting [19]) and in data set [6] (setting [20]) was “Form CSIV” throughout. In addition, the Purity change was found to be 0.02% in data set [6] (setting [15]); 0.04% in data set [6] (setting [16]); 0.00% in data set [6] (setting [17]); 0.03% in data set [6] (setting [18]); 0.04% in data set [6] (setting [19]); 0.06% in data set [6] (setting [20]).

For the compound `O=C(O)CCCc1cc2cc(Cl)ccc2n1S(=O)(=O)c1ccc2ncsc2c1` [amorphous, 5-Chloro-1-[(6-benzothiazolyl)sulfonyl]-1H-indole-2-butanoic acid, reference compound], the “Weight gain of amorphous relative to that of Form CSI” value is given as “about 6 times” in data set [2] (0 to 60% RH) and roughly 7 times in data set [2] (0 to 70% RH). Further, the “Weight gain of amorphous relative to that of Form CSII” value in data set [2] (0 to 60% RH) was “about 4 times”; in data set [2] (0 to 70% RH) it was roughly 5 times. For the same compound, the “Weight gain of amorphous relative to that of Form CSIV” value in data set [2] (0 to 60% RH and 0 to 70% RH) is reported as “about 4 times”. Besides, the “Weight gain from 0 to 60% RH” value in data set [2] (0 to 60% RH) is recorded as 0.94%; in data set [2] (0 to 60% RH, listed as prior art amorphous), 0.94%. Also, the “Weight gain from 0 to 70% RH” value in data set [2] (0 to 70% RH) is 1.18%; in data set [2] (0 to 70% RH, listed as prior art amorphous), 1.18%.
